Results on two compounds are retold here after patent US7928227B2, “2-oxo-1,3,5-perhydrotriazapine derivatives useful in the treatment of hyper-proliferative, angiogenesis, and inflammatory disorders” (Bayer Healthcare LLC, priority 2003, dated 2011).

The structures appear in SMILES notation.

Data set [1] can be described thus: Pharmacokinetics in the mouse (plasma levels by LC-MS after oral gavage of Example 1). It is filed as in vivo. As to conditions: for AUC / Cmax / concentration at 0.5 h / concentration at 1 h / concentration at 5 h: mouse, female ICr mice, single oral gavage of Example 1 at 30 mg/kg, plasma; for concentration at 0.5 h: 0.5 hours post dosing; for concentration at 1 h: 1 hour post dosing; for concentration at 5 h: 5 hours post dosing. As for the experimental part:
Female ICr mice received single doses of Example 1 by oral gavage at 30 mg/kg body weight. The vehicle used for administration consisted of 12.5% Cremophor, 12.5% ethanol and 75% saline. Blood samples were collected by cardiac puncture under anesthesia and plasma was isolated by centrifugation. Three animals were used for each time point of 0.5, 1 and 5 hours post dosing. Plasma levels of Example 1 and Intermediate 1 were measured by LC-MS.
Calibration samples (1 to 5,000 ng/mL) were prepared by spiking drug-free mouse plasma with known concentrations of Example 1 and Intermediate 1 and then processed with the study samples. An internal standard (close analog) was spiked at a final concentration of 100 ng/ml. Plasma samples were extracted via protein precipitation using acetonitrile (3:1). After vortexing for 1 minute, samples were centrifuged at 2500 rpm for 15 minutes. Supernatant was transferred to 96-well microtiter plates for LC-MS analysis. Analytes (Example 1 and Intermediate 1) and the internal standard were monitored using MRM transitions consisting of their protonated molecular ions to prominent fragment ions (Example 1 m/z 520 to m/z 270; Intermediate 1 m/z 465 to 252; internal standard m/z 469 to m/z 256). The calibration curve was constructed using least squares linear regression and utilized peak area ratios of the analyte and internal standard. Pharmacokinetic analysis of the measured plasma concentrations was conducted using the Watson® Drug Metabolism Laboratory Information Management System (Innaphase Corp, Philadelphia, Pa.). […] By changing the nature of substituent Q in Formula (I), it is possible to impact the stability, i.e., the speed of hydrolysis) of the prodrug, and therefore to modulate the plasma exposure to the pharmacologically active compound. High stabilities will lead to extended release of the drug, while low stabilities will contribute to high Cmax and short duration of action.

Usually AUC stands for the area under the concentration-time curve, a measure of exposure. Read a high AUC as more exposure. In general, Cmax refers to the highest concentration seen after dosing. Broadly, the melting point is the temperature of the solid-liquid transition. The compound `CNC(=O)c1cc(Oc2ccc(N3CN(C)CN(c4ccc(Cl)c(C(F)(F)F)c4)C3=O)cc2)ccn1` [Example 1] came in with a melting point of 82 to 85 °C. Besides, in data set [1], the AUC turned out to be 53.1 µM·h, the peak level (Cmax) was 13 µM, the concentration at 0.5 h came to 12.1 µM and the concentration at 1 h was 13 µM. In data set [1], the concentration at 5 h came out at 9.4 µM. For the same compound, the Absorption in mice entry in data set [1] (oral gavage of Example 1 at 30 mg/kg, result in words) is “very well absorbed”.

In the case of `CNC(=O)c1cc(Oc2ccc(NC(=O)Nc3ccc(Cl)c(C(F)(F)F)c3)cc2)ccn1` [Intermediate 1, N-(4-chloro-3(trifluoromethyl)phenyl)-N′-(4-(2-(N-methylcarbamoyl)-4-pyridyloxy)phenyl)urea, reference compound], the “Levels detected in plasma after oral administration of the pro-drug Example 1” value in data set [1] (mice, oral gavage of Example 1 at 30 mg/kg, result in words) was “significant levels”. In data set [1], this compound returned an AUC of 1 µM·h, a Cmax of 0.3 µM, a concentration at 0.5 h of 0.1 µM and a concentration at 1 h of 0.2 µM. In addition, the concentration at 5 h in data set [1] was 0.5 µM.
